# According to PMC3961306, “Comparison of the Cancer Gene Targeting and Biochemical Selectivities of All Targeted Kinase Inhibitors Approved for Clinical Use” (PLoS ONE, 2014):
# Columns and labels:
# Assay in all cases: Kinase profiling in a biochemical assay panel (mobility shift assays and ELISA), %-inhibition at 1 μM; selectivity entropy
# [1] = target: T1, panel of more than 300 wild-type and mutant kinases (313 kinase panel) (Homo sapiens, UniProt P54753)
# T1 sequence (P54753 34-998): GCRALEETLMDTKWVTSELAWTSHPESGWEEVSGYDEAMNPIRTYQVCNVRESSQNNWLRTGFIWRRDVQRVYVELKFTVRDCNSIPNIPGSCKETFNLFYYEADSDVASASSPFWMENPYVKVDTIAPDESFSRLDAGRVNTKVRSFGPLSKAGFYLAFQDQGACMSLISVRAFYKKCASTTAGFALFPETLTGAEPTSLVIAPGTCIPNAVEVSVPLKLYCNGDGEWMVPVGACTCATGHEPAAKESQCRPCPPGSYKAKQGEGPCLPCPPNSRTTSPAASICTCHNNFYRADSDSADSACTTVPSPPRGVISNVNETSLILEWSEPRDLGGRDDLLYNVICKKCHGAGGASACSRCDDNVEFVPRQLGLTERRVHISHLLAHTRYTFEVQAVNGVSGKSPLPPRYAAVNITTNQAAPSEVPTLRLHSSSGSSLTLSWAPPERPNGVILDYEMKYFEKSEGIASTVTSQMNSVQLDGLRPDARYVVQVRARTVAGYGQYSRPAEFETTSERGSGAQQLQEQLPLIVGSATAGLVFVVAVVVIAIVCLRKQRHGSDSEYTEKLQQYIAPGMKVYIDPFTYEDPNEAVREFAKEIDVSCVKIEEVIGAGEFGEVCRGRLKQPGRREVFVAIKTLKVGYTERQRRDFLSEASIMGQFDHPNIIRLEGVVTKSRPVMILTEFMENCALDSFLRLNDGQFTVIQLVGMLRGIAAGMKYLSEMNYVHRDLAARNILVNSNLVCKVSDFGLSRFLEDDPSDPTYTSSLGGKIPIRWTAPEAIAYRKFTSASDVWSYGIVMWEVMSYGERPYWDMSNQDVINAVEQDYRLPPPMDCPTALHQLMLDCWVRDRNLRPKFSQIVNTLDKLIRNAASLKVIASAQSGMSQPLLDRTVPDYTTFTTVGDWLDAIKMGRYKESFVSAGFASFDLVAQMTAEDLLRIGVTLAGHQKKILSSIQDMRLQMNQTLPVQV
# [2] = target: panel of more than 300 wild-type and mutant kinases (313 kinase panel) (Homo sapiens, UniProt Q04912)
# [3] = target: T2, panel of more than 300 wild-type and mutant kinases (313 kinase panel) (Homo sapiens, UniProt Q9UL54)
# T2 sequence (Q9UL54 1-1235): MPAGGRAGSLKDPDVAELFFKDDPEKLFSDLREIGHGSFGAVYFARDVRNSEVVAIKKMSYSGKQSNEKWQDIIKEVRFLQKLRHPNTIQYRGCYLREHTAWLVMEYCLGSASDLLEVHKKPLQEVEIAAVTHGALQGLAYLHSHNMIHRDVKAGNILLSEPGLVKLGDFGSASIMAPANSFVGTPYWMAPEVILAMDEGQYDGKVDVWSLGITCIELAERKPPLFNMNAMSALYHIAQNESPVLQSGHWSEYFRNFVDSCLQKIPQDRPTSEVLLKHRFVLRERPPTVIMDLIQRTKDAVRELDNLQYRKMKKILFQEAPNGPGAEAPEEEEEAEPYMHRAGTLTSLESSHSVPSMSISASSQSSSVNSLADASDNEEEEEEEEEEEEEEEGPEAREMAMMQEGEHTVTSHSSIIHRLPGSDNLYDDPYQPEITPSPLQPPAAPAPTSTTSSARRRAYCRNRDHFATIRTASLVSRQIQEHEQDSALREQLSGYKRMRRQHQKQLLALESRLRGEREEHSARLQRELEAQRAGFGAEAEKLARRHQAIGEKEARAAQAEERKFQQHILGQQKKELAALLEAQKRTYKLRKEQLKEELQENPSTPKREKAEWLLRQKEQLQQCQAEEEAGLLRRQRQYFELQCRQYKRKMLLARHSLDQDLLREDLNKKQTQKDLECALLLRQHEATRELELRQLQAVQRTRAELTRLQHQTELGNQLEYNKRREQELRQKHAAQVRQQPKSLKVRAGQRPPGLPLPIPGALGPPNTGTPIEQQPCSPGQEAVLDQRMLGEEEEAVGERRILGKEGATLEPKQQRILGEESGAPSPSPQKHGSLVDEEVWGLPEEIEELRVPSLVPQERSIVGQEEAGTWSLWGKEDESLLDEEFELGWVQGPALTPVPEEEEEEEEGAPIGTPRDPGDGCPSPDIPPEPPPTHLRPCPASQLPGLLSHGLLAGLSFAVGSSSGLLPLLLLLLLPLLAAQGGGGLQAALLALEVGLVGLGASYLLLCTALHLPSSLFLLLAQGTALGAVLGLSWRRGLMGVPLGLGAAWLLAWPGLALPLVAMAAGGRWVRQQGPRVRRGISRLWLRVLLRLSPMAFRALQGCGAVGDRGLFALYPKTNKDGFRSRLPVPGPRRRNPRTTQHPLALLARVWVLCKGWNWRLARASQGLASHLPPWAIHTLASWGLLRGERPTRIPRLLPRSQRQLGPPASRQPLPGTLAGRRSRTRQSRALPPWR
Compound,"%-inhibition of EPHB3 ([1]; kinase EPHB3, compound at 1 μM) [%]","%-inhibition of RON ([2]; kinase RON, 1 μM) [%]","%-inhibition of TAOK2 ([3]; kinase TAOK2, 1 μM) [%]",%-inhibition of EPHB3 ([1]; 1 µM) [%],%-inhibition of TAOK2 ([3]; 1 µM) [%],%-inhibition of RON ([2]; 1 µM) [%]
CO[C@H]1C[C@@H]2CC[C@@H](C)[C@@](O)(O2)C(=O)C(=O)N2CCCC[C@H]2C(=O)O[C@H]([C@H](C)C[C@@H]2CC[C@@H](OC(=O)C(C)(CO)CO)[C@H](OC)C2)CC(=O)[C@H](C)/C=C(\C)[C@@H](O)[C@@H](OC)C(=O)[C@H](C)C[C@H](C)/C=C/C=C/C=C/1C [temsirolimus],-13,-3,–,–,–,–
CNC(=O)c1cc(Oc2ccc(NC(=O)Nc3ccc(Cl)c(C(F)(F)F)c3)c(F)c2)ccn1 [regorafenib],22,3.5,75,–,–,–
CO[C@H]1C[C@@H]2CC[C@@H](C)[C@@](O)(O2)C(=O)C(=O)N2CCCC[C@H]2C(=O)O[C@H]([C@H](C)C[C@@H]2CC[C@@H](OCCO)[C@H](OC)C2)CC(=O)[C@H](C)/C=C(\C)[C@@H](O)[C@@H](OC)C(=O)[C@H](C)C[C@H](C)/C=C/C=C/C=C/1C [everolimus],-5,-6.45,-0.8,–,–,–
COc1cc2nccc(Oc3ccc(NC(=O)C4(C(=O)Nc5ccc(F)cc5)CC4)cc3)c2cc1OC [cabozantinib],85,99,6,–,–,–
COc1cc2c(Nc3ccc(Br)cc3F)ncnc2cc1OCC1CCN(C)CC1 [vandetanib],8,–,-3.51,–,–,–
CC(C)(C)c1nc(-c2cccc(NS(=O)(=O)c3c(F)cccc3F)c2F)c(-c2ccnc(N)n2)s1 [dabrafenib],3,37,34,–,–,–
Cc1ccc(Nc2nccc(N(C)c3ccc4c(C)n(C)nc4c3)n2)cc1S(N)(=O)=O [pazopanib],-0.529,13,53,–,–,–
N#CC[C@H](C1CCCC1)n1cc(-c2ncnc3[nH]ccc23)cn1 [ruxolitinib],–,-5,35,2.73,–,–
C[C@@H](Oc1cc(-c2cnn(C3CCNCC3)c2)cnc1N)c1c(Cl)ccc(F)c1Cl [crizotinib],5,–,33,–,–,–
CCCS(=O)(=O)Nc1ccc(F)c(C(=O)c2c[nH]c3ncc(-c4ccc(Cl)cc4)cc23)c1F [vemurafenib],2,-2,5.35,–,–,–
O=S(=O)(c1cccc2cnccc12)N1CCCNCC1 [fasudil],-4,-6,-2.59,–,–,–
CS(=O)(=O)CCNCc1ccc(-c2ccc3ncnc(Nc4ccc(OCc5cccc(F)c5)c(Cl)c4)c3c2)o1 [lapatinib],5,1.17,-5.44,–,–,–
C#Cc1cccc(Nc2ncnc3cc(OCCOC)c(OCCOC)cc23)c1 [erlotinib],–,–,–,5,-8,8
Cc1cn(-c2cc(NC(=O)c3ccc(C)c(Nc4nccc(-c5cccnc5)n4)c3)cc(C(F)(F)F)c2)cn1 [nilotinib],92,–,7.47,–,–,-13
COc1cc(Nc2c(C#N)cnc3cc(OCCCN4CCN(C)CC4)c(OC)cc23)c(Cl)cc1Cl [bosutinib],–,–,10,–,–,–
CCN(CC)CCNC(=O)c1c(C)[nH]c(/C=C2\C(=O)Nc3ccc(F)cc32)c1C [sunitinib],–,22,–,–,–,–
CC(=O)Nc1cccc(-n2c(=O)n(C3CC3)c(=O)c3c(Nc4ccc(I)cc4F)n(C)c(=O)c(C)c32)c1 [trametinib],–,-6.44,-2.59,-5.47,–,–
Cc1ccc(C(=O)Nc2ccc(CN3CCN(C)CC3)c(C(F)(F)F)c2)cc1C#Cc1cnc2cccnn12 [ponatinib],101,39,74,–,–,–
